Source: patent publication US20250236595A1 (priority 2020, published 2025)

How the values were obtained:
PACAP = assay: Level of PACAP in serum of mice after intraperitoneal injection (ELISA kit); type: in vivo, BALb/c mice; settings: SPAM1 10 and 100 μmol/kg intraperitoneal; blood 30 min after injection; vs normal saline control
Method: Thirty BALb/c mice (SPF grade, 8-10 weeks old, weighing 22-27 g, half female and half male) were randomly divided into following […], with 10 mice in each group: 1) SPAM1 low-dose group, intraperitoneal injection, 10 μmol/kg; 2) SPAM1 high-dose group, intraperitoneal injection, 100 μmol/kg; 3) normal control group, injected with normal saline intraperitoneally; 30 min after the injection, blood was collected from the orbit, and serum was assayed for PACAP using an ELISA kit.

PAC1-R [1] = assay: PAC1-R expression in Neuro2a cells, western blot with anti-PAC1-R (C-terminal) antibody; type: cell-based, Mouse; settings: SPAM1 at 1 μM, 10 μM and 100 μM, incubated 1 h
Method: Mouse nerve cells Neuro2a naturally expressing the PAC1-R were cultured until the fusion rate was more than 80%, added with SPAM1 at 1 μM, 10 μM and 100 μM, and disrupted after being incubated for 1 h. The supernatant of the whole cell lysate was subjected to SDS-PAGE and the western blot assay using the anti-PAC1-R (C-terminal) antibody.

PAC1-R [2] = assay: PAC1-R expression in SHSY-5Y cells, confocal immunofluorescence; type: cell-based, Human; settings: 100 μM SPAM1, incubated 1 h
Method: Human nerve cells SHSY-5Y naturally expressing the PAC1-R were cultured until the fusion rate was more than 80%, added with 100 μM SPAM1, and observed by confocal immunofluorescence after being incubated for 1 h.

corticosterone = assay: Level of corticosterone (COR) in serum of mice after intraperitoneal injection (ELISA); type: in vivo, BALb/c mice; settings: SPAM1 10, 100 and 1000 μmol/kg intraperitoneal; blood 1 h after injection; vs normal saline control
Method: Forty BALb/c mice (SPF grade, 8-10 weeks old, weighing 22-27 g, half female and half male) were randomly divided into following […], with 10 mice in each group: 1) SPAM1 low-dose group, intraperitoneal injection, 10 μmol/kg; 2) SPAM1 medium-dose group, intraperitoneal injection, 100 μmol/kg; 3) SPAM1 high-dose group, intraperitoneal injection, 1000 μmol/kg; 4) normal control group, injected with normal saline intraperitoneally; 1 h after the injection, blood was collected from the orbit, and the level of COR in serum was measured by the solid phase sandwich enzyme-linked immunosorbent assay (ELISA).

[3] = test system: D-galactose-induced aging model; assay: D-galactose-induced aging model, ovarian decline: estradiol and luteinizing hormone in serum (ELISA); type: in vivo, BALB/c female mice; settings: female mice, D-galactose 200 mg/kg/d*42d; SPAM1 10 or 100 μmol/kg/d*28d i.p. from day 15; high dose more significant than low
Method: (§1) A D-galactose-induced aging model was used. Forty BALB/c female mice (SPF grade, 8-10 weeks old, weighing 22-27 g) were randomly divided into following 4 groups, with 10 mice in each group: 1) aging model group, injected with D-galactose (200 mg/kg/d*42d) subcutaneously at the neck or back; 2) SPAM1 low-dose treatment group, injected with D-galactose as in group 1), and injected with low-dose SPAM1 (10 μmol/kg/d*28d) intraperitoneally on day 15; 3) SPAM1 high-dose treatment group, injected with D-galactose as in group 1), and injected with high-dose SPAM1 (100 μmol/kg/d*28d) intraperitoneally on day 15; and 4) normal control group, injected with normal saline intraperitoneally instead of D-galactose and SPAM1; 24 h after the completion of all injections, blood was collected from the orbit, and the level of estradiol and luteinizing hormone in serum was assayed by the enzyme-linked immunosorbent assay (ELISA).

[4] = test system: D-galactose-induced aging model; assay: D-galactose-induced aging model, testicular decline: testosterone in serum (ELISA); type: in vivo, BALB/c male mice; settings: male mice, D-galactose 200 mg/kg/d*42d; SPAM1 10 or 100 μmol/kg/d*28d i.p. from day 15; high dose more significant than low
Method: as §1, with “male” for “female”, “after” for “after the completion of”, “testosterone” for “estradiol and luteinizing hormone”

[5] = test system: dexamethasone-induced thymus decline model; assay: Dexamethasone-induced thymus decline model, thymus index; type: in vivo, BALB/c mice; settings: dexamethasone 25 mg/kg/d*2d i.p.; SPAM1 10 or 100 μmol/kg/d*2d i.p. at the same time
Method: A dexamethasone-induced thymus decline model was used. Forty BALB/c mice (SPF grade, half male and half female, 8-10 weeks old, weighing 22-27 g) were randomly divided into following 4 groups, with 10 mice in each group: 1) aging model group, injected with dexamethasone (25 mg/kg/d*2d) intraperitoneally; 2) SPAM1 low-dose treatment group, injected with dexamethasone as in group 1), and injected with SPAM1 at a low dose (10 μmol/kg/d*2d) intraperitoneally at the same time; 3) SPAM1 high-dose treatment group, injected with dexamethasone as in group 1), and injected with SPAM1 at a high dose (100 μmol/kg/d*2d) intraperitoneally at the same time; and 4) normal control group, injected with normal saline intraperitoneally instead of dexamethasone and SPAM1; 24 h after the completion of the final injection, the mice were weighed and sacrificed by cervical dislocation method, the thymus of the mice was weighed, and the thymus index was calculated according to: thymus index=thymus weight (mg)/body weight (g).

LPS-induced sepsis model = assay: LPS-induced sepsis model, survival; type: in vivo, BALB/c mice; settings: SPAM1 10 or 100 μmol/kg i.p. 30 min before 15 mg/kg LPS at the tail vein; survival recorded for 8 days
Method: An LPS-induced sepsis model was used. Forty BALB/c mice (SPF grade, half male and half female, 8-10 weeks old, weighing 22-27 g) were randomly divided into following 4 groups, with 10 mice in each group: 1) sepsis model group, injected with normal saline intraperitoneally, and 30 min later, injected with 15 mg/kg LPS at the tail vein; 2) SPAM1 low-dose treatment group, injected with low-dose SPAM1 (10 μmol/kg) intraperitoneally, and 30 min later, injected with 15 mg/kg LPS at the tail vein; 3) SPAM1 high-dose treatment group, injected with high-dose SPAM1 (100 μmol/kg) intraperitoneally, and 30 min later, injected with 15 mg/kg LPS at the tail vein; and 4) normal control group, injected with normal saline intraperitoneally, and 30 min later, injected with normal saline at the tail vein; the survival of mice was observed every 24 h, and the survival rate of each group was recorded for 8 days.

[6] = cited from earlier work

Molecule | level of PACAP in serum (PACAP) | expression of PAC1-R in nerve cells Neuro2a (western blot) (PAC1-R [1]) | red fluorescent signal targeting PAC1-R in SHSY-5Y cells (PAC1-R [2]) | level of COR in serum (corticosterone) | level of estradiol in serum of aging mice [3] | level of luteinizing hormone in serum of aging mice [3] | level of testosterone in serum of aging mice [4] | thymus index (thymus weight (mg)/body weight (g)) [5] | death rate / survival rate in LPS-induced sepsis (LPS-induced sepsis model) | in vivo half-life [6]
O=C(CCCc1nc2ccccc2c(=O)[nH]1)NCc1ccc(C(=O)O)cc1 | effectively up-regulated the level of PACAP in serum and the up-regulation was concentration-dependent | up-regulated the expression of PAC1-R in nerve cells in a concentration-dependent manner | significantly up-regulated | increased the level of COR in a concentration-dependent manner | effectively up-regulated | effectively up-regulated | effectively up-regulated | effectively inhibited the dexamethasone-induced down-regulation of thymus index | effectively inhibited death caused by LPS-induced sepsis | –
PACAP38 | – | – | – | – | – | – | – | – | – | less than 2 min
